# According to patent EP1198478B1, “SOMATOSTATIN ANALOGS AND THEIR USE FOR THE TREATMENT OF CANCER” (Dabur Research Foundation, priority 2000, dated 2002):
# Columns and labels:
# Type in all cases: cell-based
# Conditions in all cases: 48 hours
# U87MG (Glioblastoma) = assay: MTT cytotoxicity assay, U87MG cells
# Description: (§1) The cytotoxic effect of peptides SEQ ID NO: 2, SEQ ID NO: 3, SEQ ID NO: 6, and SEQ ID NO: 9, was studied by MTT assay which is based on the principle of uptake of MTT [3-[4,5-dimethylthiazol-2-yl]-2,5-diphenyl tetrazolium bromide], a tetrazolium salt by the metabolically active cells where it is metabolized by active mitochondria into a blue colored formazan product which can be read spectrophotometrically. Briefly, tumor cells PTC (primary human colon cancer cell line), KB (Oral squamous), U87MG (Glioblastoma), HBL100 (Breast), HeP2 (Laryngeal), ECV304 (Endothelial), PA-1 (Ovary) and L132 (Lung) were incubated with the peptide analogs for 48 hours at 37°C in a 96-well culture plate, followed by the addition of 100 µg MTT and further incubation of 1 hour. The formazan crystals formed inside the cells were dissolved with a detergent comprising 10% Sodium dodecyl sulfate and 0.01 N HCl and optical density read on a multiscan ELISA reader. The optical density was directly proportional to the number of proliferating and metabolically active cells.
# KB (Oral squamous) = assay: MTT cytotoxicity assay, KB cells
# Description: as §1
# PA-1 (Ovary) = assay: MTT cytotoxicity assay, PA-1 cells
# Description: as §1
# HBL100 (Breast) = assay: MTT cytotoxicity assay, HBL100 cells
# Description: as §1
# [1] = system: PTC (primary human colon cancer cell line); assay: MTT cytotoxicity assay, PTC cells
# Description: as §1
# HeP2 (Laryngeal) = assay: MTT cytotoxicity assay, HeP2 cells
# Description: as §1
# L132 (Lung) = assay: MTT cytotoxicity assay, L132 cells
# Description: as §1
# ECV304 (Endothelial) = assay: MTT cytotoxicity assay, ECV304 cells
# Description: as §1
substance,measurement,setting,value
D-Phe-Cys-Tyr-D-Trp-Lys-Ac5c-Pen-Thr-NH2 [SEQ ID NO: 6],Percentage cytotoxicity,U87MG (Glioblastoma); 1nM,39.0 ± 3.5%
same,Percentage cytotoxicity,U87MG (Glioblastoma); 10 nM,40.4 ± 2.4%
same,Percentage cytotoxicity,U87MG (Glioblastoma); 1µM,39.5 ± 1.2%
same,Percentage cytotoxicity,U87MG (Glioblastoma); 100n M,42.9 ± 1.4%
same,Percentage cytotoxicity,KB (Oral squamous); 1nM,28.0 ± 1.2%
same,Percentage cytotoxicity,KB (Oral squamous); 10 nM,23.0 ± 4.8%
same,Percentage cytotoxicity,KB (Oral squamous); 1µM,12.9 ± 1.1%
same,Percentage cytotoxicity,KB (Oral squamous); 100n M,19.0 ± 5.2%
same,Percentage cytotoxicity,PA-1 (Ovary); 1nM,19.4 ± 1.0%
same,Percentage cytotoxicity,PA-1 (Ovary); 10 nM,25.9 ± 1.4%
same,Percentage cytotoxicity,PA-1 (Ovary); 1µM,8.0 ± 3.3%
same,Percentage cytotoxicity,PA-1 (Ovary); 100n M,22.6 ± 2.2%
same,Percentage cytotoxicity,HBL100 (Breast); 1nM,15.7 ± 4.5%
same,Percentage cytotoxicity,HBL100 (Breast); 10 nM,14.5 ± 2.8%
same,Percentage cytotoxicity,HBL100 (Breast); 1µM,8.0 ± 1.4%
same,Percentage cytotoxicity,HBL100 (Breast); 100n M,12.6 ± 3.2%
same,Percentage cytotoxicity,[1]; 1nM,12±1.5%
same,Percentage cytotoxicity,[1]; 10 nM,11 ± 7.1%
same,Percentage cytotoxicity,[1]; 1µM,9 ± 2.1%
same,Percentage cytotoxicity,[1]; 100n M,8 ± 5.2%
same,Percentage cytotoxicity,HeP2 (Laryngeal); 1nM,8.0 ± 3.6%
same,Percentage cytotoxicity,HeP2 (Laryngeal); 10 nM,14.8 ± 4.4%
same,Percentage cytotoxicity,HeP2 (Laryngeal); 1µM,10.6 ± 2.4%
same,Percentage cytotoxicity,HeP2 (Laryngeal); 100n M,11.0 ± 2.5%
same,Percentage cytotoxicity,L132 (Lung); 1nM,14.9 ± 1.2%
same,Percentage cytotoxicity,L132 (Lung); 10 nM,25.7 ± 4.8%
same,Percentage cytotoxicity,L132 (Lung); 1µM,13.7 ± 5.8%
same,Percentage cytotoxicity,L132 (Lung); 100n M,22.9 ± 2.6%
same,Percentage cytotoxicity,ECV304 (Endothelial); 1nM,18.9 ± 3.9%
same,Percentage cytotoxicity,ECV304 (Endothelial); 10 nM,24.9 ± 3.8%
same,Percentage cytotoxicity,ECV304 (Endothelial); 1µM,7.9 ± 1.6%
same,Percentage cytotoxicity,ECV304 (Endothelial); 100n M,13.9 ± 2.9%
